# Source: patent publication US20160158317A1, “Antimicrobial Peptide Variants and Polynucleotides Encoding Same” (Adenium Biotech A/S, priority 2010, published 2016)
# Where a SMILES comes first, the peptide text is derived from it. Bridges are numbered along the chain shown (N, C = ends).
# Assay: Determination of the protein binding (90% serum, 30 kDa filter, HPLC)
# Assay type: in vitro ADME
# Conditions: serum
# Procedure: Protein binding assays were performed as follows. The purified peptides were mixed with 90% serum and centrifuged through a 30 kDa filter. The ultra-filtrate and the non filtrated serum samples were quantified by HPLC measurements and the protein binding was subsequently calculated.
row,SMILES,fraction unbound
1,"CC(C)[C@@H]1NC(=O)CNC(=O)[C@H](CC(N)=O)NC(=O)[C@H](CCCNC(=N)N)NC(=O)[C@H](Cc2ccc(O)cc2)NC(=O)[C@H](C)NC(=O)[C@@H]2CSSC[C@H](NC(=O)[C@H](C)NC(=O)[C@H](CCCNC(=N)N)NC1=O)C(=O)N[C@@H](Cc1ccc(O)cc1)C(=O)N[C@@H](CCCNC(=N)N)C(=O)N[C@@H](CCCNC(=N)N)C(=O)N[C@H](C(=O)N[C@@H](CC(N)=O)C(=O)O)CSSC[C@H](NC(=O)[C@H](Cc1ccccc1)NC(=O)CN)C(=O)N[C@@H](Cc1c[nH]c3ccccc13)C(=O)N[C@@H](Cc1ccc(O)cc1)C(=O)N[C@@H](C)C(=O)N2 [compound 343] (H-GFCWYACAYRNGVRACYRRCN-OH; disulfide 3-20, 7-16 (inferred); N-terminus and C-terminus assumed)",0.26
2,"CC(C)C[C@@H]1NC(=O)CNC(=O)[C@H](CC(N)=O)NC(=O)[C@H](CCCNC(=N)N)NC(=O)[C@H](CCCCN)NC(=O)[C@H](C(C)C)NC(=O)[C@@H]2CSSC[C@H](NC(=O)[C@H](C(C)C)NC(=O)[C@H](CCCNC(=N)N)NC1=O)C(=O)N[C@@H](Cc1ccc(O)cc1)C(=O)N[C@@H](CCCNC(=N)N)C(=O)N[C@@H](CCCNC(=N)N)C(=O)N[C@H](C(=O)N[C@@H](CC(N)=O)C(=O)O)CSSC[C@H](NC(=O)[C@H](Cc1ccccc1)NC(=O)CN)C(=O)N[C@@H](Cc1c[nH]c3ccccc13)C(=O)N[C@@H](Cc1ccc(O)cc1)C(=O)N[C@@H]([C@@H](C)O)C(=O)N2 [compound 346] (H-GFCWYTCVKRNGLRVCYRRCN-OH; disulfide 3-20, 7-16 (inferred); N-terminus and C-terminus assumed)",0.14
3,"CC(C)[C@@H]1NC(=O)CNC(=O)[C@H](CC(N)=O)NC(=O)[C@H](CCCNC(=N)N)NC(=O)[C@H](Cc2ccc(O)cc2)NC(=O)[C@H](C(C)C)NC(=O)[C@@H]2CSSC[C@H](NC(=O)[C@H](C(C)C)NC(=O)[C@H](CCCNC(=N)N)NC1=O)C(=O)N[C@@H](Cc1c[nH]cn1)C(=O)N[C@@H](CCCNC(=N)N)C(=O)N[C@@H](Cc1c[nH]cn1)C(=O)N[C@H](C(=O)N[C@@H](CC(N)=O)C(=O)O)CSSC[C@H](NC(=O)[C@H](Cc1ccccc1)NC(=O)[C@@H](N)CCCNC(=N)N)C(=O)N[C@@H](Cc1c[nH]c3ccccc13)C(=O)N[C@@H](CC(N)=O)C(=O)N[C@@H](C(C)C)C(=O)N2 [compound 359] (H-RFCWNVCVYRNGVRVCHRHCN-OH; disulfide 3-20, 7-16 (inferred); N-terminus and C-terminus assumed)",0.2
4,"CC(C)[C@@H]1NC(=O)[C@H](CCCNC(=N)N)NC(=O)[C@H](C)NC(=O)CNC(=O)[C@H](CC(N)=O)NC(=O)[C@H](CCCNC(=N)N)NC(=O)[C@H](CCCCN)NC(=O)[C@H](C(C)C)NC(=O)[C@@H]2CSSC[C@H](NC1=O)C(=O)N[C@@H](Cc1ccc(O)cc1)C(=O)N[C@@H](CCCNC(=N)N)C(=O)N[C@@H](CCCNC(=N)N)C(=O)N[C@H](C(=O)N[C@@H](CC(N)=O)C(=O)O)CSSC[C@H](NC(=O)[C@H](Cc1ccccc1)NC(=O)CN)C(=O)N[C@@H](C)C(=O)N[C@@H](Cc1c[nH]cn1)C(=O)N[C@@H](C(C)C)C(=O)N2 [compound 362] (H-GFCAHVCVKRNGARVCYRRCN-OH; disulfide 3-20, 7-16 (inferred); N-terminus and C-terminus assumed)",0.24
5,"CC(C)[C@@H]1NC(=O)CNC(=O)[C@H](CC(N)=O)NC(=O)[C@H](CCCNC(=N)N)NC(=O)[C@H](CCCCN)NC(=O)[C@H](C)NC(=O)[C@@H]2CSSC[C@H](NC(=O)[C@H](C(C)C)NC(=O)[C@H](CCCNC(=N)N)NC1=O)C(=O)N[C@@H](Cc1ccc(O)cc1)C(=O)N[C@@H](CCCNC(=N)N)C(=O)N[C@@H](CCCNC(=N)N)C(=O)N[C@H](C(=O)N[C@@H](CC(N)=O)C(=O)O)CSSC[C@H](NC(=O)[C@H](Cc1ccccc1)NC(=O)CN)C(=O)N[C@@H](C)C(=O)N[C@@H](CCCNC(=N)N)C(=O)N[C@@H](C(C)C)C(=O)N2 [compound 363] (H-GFCARVCAKRNGVRVCYRRCN-OH; disulfide 3-20, 7-16 (inferred); N-terminus and C-terminus assumed)",0.2
6,"CC(C)[C@@H]1NC(=O)CNC(=O)[C@H](CC(N)=O)NC(=O)[C@H](CCCNC(=N)N)NC(=O)[C@H](CCCNC(=N)N)NC(=O)[C@H](C(C)C)NC(=O)[C@@H]2CSSC[C@H](NC(=O)[C@H](C(C)C)NC(=O)[C@H](CCCNC(=N)N)NC1=O)C(=O)N[C@@H](Cc1ccc(O)cc1)C(=O)N[C@@H](CCCNC(=N)N)C(=O)N[C@@H](CCCNC(=N)N)C(=O)N[C@H](C(=O)N[C@@H](CC(N)=O)C(=O)O)CSSC[C@H](NC(=O)[C@H](Cc1ccccc1)NC(=O)CN)C(=O)N[C@@H](Cc1ccccc1)C(=O)N[C@@H](CCCNC(=N)N)C(=O)N[C@@H](CO)C(=O)N2 [compound 377] (H-GFCFRSCVRRNGVRVCYRRCN-OH; disulfide 3-20, 7-16 (inferred); N-terminus and C-terminus assumed)",0.35
7,"CC(C)[C@@H]1NC(=O)CNC(=O)[C@H](CC(N)=O)NC(=O)[C@H](CCCNC(=N)N)NC(=O)[C@H](CCCCN)NC(=O)[C@H](C(C)C)NC(=O)[C@@H]2CSSC[C@H](NC(=O)[C@H](CCCCN)NC(=O)[C@H](CCCNC(=N)N)NC1=O)C(=O)N[C@@H](Cc1ccc(O)cc1)C(=O)N[C@@H](CCCNC(=N)N)C(=O)N[C@@H](CCCNC(=N)N)C(=O)N[C@H](C(=O)N[C@@H](CC(N)=O)C(=O)O)CSSC[C@H](NC(=O)[C@H](Cc1ccccc1)NC(=O)CN)C(=O)N[C@@H](Cc1ccccc1)C(=O)N[C@@H](CCCNC(=N)N)C(=O)N[C@@H](C(C)C)C(=O)N2 [compound 381] (H-GFCFRVCVKRNGVRKCYRRCN-OH; disulfide 3-20, 7-16 (inferred); N-terminus and C-terminus assumed)",0.02
8,"CC(C)[C@@H]1NC(=O)[C@@H]2CSSC[C@H](NC(=O)[C@H](C)NC(=O)[C@H](CCCNC(=N)N)NC(=O)[C@H](CCCCN)NC(=O)CNC(=O)[C@H](CC(N)=O)NC(=O)[C@H](CCCNC(=N)N)NC(=O)[C@H](Cc3ccc(O)cc3)NC1=O)C(=O)N[C@@H](Cc1ccc(O)cc1)C(=O)N[C@@H](CCCNC(=N)N)C(=O)N[C@@H](CCCNC(=N)N)C(=O)N[C@H](C(=O)N[C@@H](CC(N)=O)C(=O)O)CSSC[C@H](NC(=O)[C@H](Cc1ccccc1)NC(=O)CN)C(=O)NCC(=O)N[C@@H](CCCNC(=N)N)C(=O)N[C@@H](C(C)C)C(=O)N2 [compound 386] (H-GFCGRVCVYRNGKRACYRRCN-OH; disulfide 3-20, 7-16 (inferred); N-terminus and C-terminus assumed)",0.19
9,"CC(C)[C@@H]1NC(=O)[C@@H]2CSSC[C@H](NC(=O)[C@H](CO)NC(=O)[C@H](CCCNC(=N)N)NC(=O)[C@H](CCCCN)NC(=O)CNC(=O)[C@H](CC(N)=O)NC(=O)[C@H](CCCCN)NC(=O)[C@H](Cc3ccc(O)cc3)NC1=O)C(=O)N[C@@H](Cc1ccc(O)cc1)C(=O)N[C@@H](CCCNC(=N)N)C(=O)N[C@@H](CCCNC(=N)N)C(=O)N[C@H](C(=O)N[C@@H](CC(N)=O)C(=O)O)CSSC[C@H](NC(=O)[C@H](Cc1ccccc1)NC(=O)CN)C(=O)N[C@@H](Cc1c[nH]c3ccccc13)C(=O)N[C@@H](Cc1c[nH]cn1)C(=O)N[C@@H](C(C)C)C(=O)N2 [compound 390] (H-GFCWHVCVYKNGKRSCYRRCN-OH; disulfide 3-20, 7-16 (inferred); N-terminus and C-terminus assumed)",0.13
10,"CC(C)[C@@H]1NC(=O)[C@H](Cc2c[nH]cn2)NC(=O)[C@H](Cc2c[nH]c3ccccc23)NC(=O)[C@@H](NC(=O)[C@H](Cc2ccccc2)NC(=O)CN)CSSC[C@@H](C(=O)N[C@@H](CC(N)=O)C(=O)O)NC(=O)[C@H](CCCNC(=N)N)NC(=O)[C@H](CCCNC(=N)N)NC(=O)[C@H](Cc2ccc(O)cc2)NC(=O)[C@@H]2CSSC[C@H](NC1=O)C(=O)N[C@@H](C)C(=O)N[C@@H](CCCNC(=N)N)C(=O)N[C@@H](CCCNC(=N)N)C(=O)N[C@@H](CC(N)=O)C(=O)NCC(=O)N[C@@H](C)C(=O)N[C@@H](CCCNC(=N)N)C(=O)N[C@@H](C(C)C)C(=O)N2 [compound 394] (H-GFCWHVCARRNGARVCYRRCN-OH; disulfide 3-20, 7-16 (inferred); N-terminus and C-terminus assumed)",0.2
11,"CC(C)C[C@@H]1NC(=O)CNC(=O)[C@H](CC(N)=O)NC(=O)[C@H](CCCNC(=N)N)NC(=O)[C@H](CCCCN)NC(=O)[C@H](CO)NC(=O)[C@@H]2CSSC[C@H](NC(=O)[C@H](C(C)C)NC(=O)[C@H](CCCNC(=N)N)NC1=O)C(=O)N[C@@H](Cc1ccc(O)cc1)C(=O)N[C@@H](CCCNC(=N)N)C(=O)N[C@@H](CCCNC(=N)N)C(=O)N[C@H](C(=O)N[C@@H](CC(N)=O)C(=O)O)CSSC[C@H](NC(=O)[C@H](Cc1ccccc1)NC(=O)CN)C(=O)N[C@@H](Cc1c[nH]c3ccccc13)C(=O)N[C@@H](Cc1c[nH]cn1)C(=O)N[C@@H](C(C)C)C(=O)N2 [compound 396] (H-GFCWHVCSKRNGLRVCYRRCN-OH; disulfide 3-20, 7-16 (inferred); N-terminus and C-terminus assumed)",0.08
12,"CC(C)[C@@H]1NC(=O)CNC(=O)[C@H](CC(N)=O)NC(=O)[C@H](CCCNC(=N)N)NC(=O)[C@H](CCCNC(=N)N)NC(=O)[C@H](C)NC(=O)[C@@H]2CSSC[C@H](NC(=O)[C@H](C(C)C)NC(=O)[C@H](CCCNC(=N)N)NC1=O)C(=O)N[C@@H](Cc1ccc(O)cc1)C(=O)N[C@@H](CCCNC(=N)N)C(=O)N[C@@H](CCCNC(=N)N)C(=O)N[C@H](C(=O)N[C@@H](CC(N)=O)C(=O)O)CSSC[C@H](NC(=O)[C@H](Cc1ccccc1)NC(=O)CN)C(=O)N[C@@H](Cc1c[nH]c3ccccc13)C(=O)N[C@@H](CC(N)=O)C(=O)N[C@@H](C)C(=O)N2 [compound 407] (H-GFCWNACARRNGVRVCYRRCN-OH; disulfide 3-20, 7-16 (inferred); N-terminus and C-terminus assumed)",0.12
